The text below walks through data of patent US20240209001A1, “HETEROCYCLIC DERIVATIVES AS JANUS KINASE INHIBITORS” (CHIESI FARMACEUTICI S.P. A., priority 2021, published 2024).

In test [1] the target is T1, JAK 1 (Homo sapiens (Human), UniProt P23458). The experiment in a line: Biochemical potency JAK1, TR-FRET LANCE Ultra kinase assay (examples 1a-10a). Conditions: ATP corresponding to Km. An excerpt:
Pharmacological Activity of the Compounds of the Invention (1a-10a).
The objective of this study was to assess the activity of novel JAK inhibitors measuring the capability of compounds to inhibit JAK1 kinase activity in a biochemical time-resolved fluorescence resonance energy transfer (TR-FRET) LANCE assay. In LANCE Ultra kinase assay in the presence of JAK1 kinase and ATP (corresponding to Km), the ULight peptide substrate (LANCE Ulight-JAK-1 (Tyr1023) Peptide, Perkin Elmer, TRF0121) was phosphorylated. It was then captured by a Eu-anti-phospho-substrate antibody (LANCE Eu-W1024 Anti-phosphotyrosine (PT66), Perkin Elmer, AD0069), which brought the Eu-chelate donor and ULight acceptor dyes into close proximity. Upon excitation at 320 nm, the Eu-chelate transfers its energy to the ULight dye, resulting in a fluorescent light emission at 665 nm. Inhibitors were tested at 11 consecutive 5-fold dilutions starting from 30 μM (30 μM-[…]) in duplicate. Calculation of IC50 data, curves and QC analysis were made using Excel tools and GraphPadPrism software. QC criteria parameters: Z′≥0.5, Hill Slope range 0.5 to 5, S:B>2.

For test [2], the system named is IL-2 induced phosphorylation of STAT5 (JAK1/JAK3 activity) in human peripheral blood mononuclear cells (PBMCs). The experiment in a line: Cell based assay PBMC (IL-2 stimulated pSTAT5). The note with it: 0.5 h, rh IL-2, 30 min incubation, pSTAT5 ELISA, read-out: Cell Based assay PBMC (IL-2 stimulated pSTAT5), data displayed as pIC50 (converted). The protocol:
In addition to enzymatic potency, the effects of the inhibitors against JAK1/JAK3 activity in a cellular assay was characterized against IL-2 induced phosphorylation of STAT5 level in human peripheral blood mononuclear cells (PBMCs).
PBMC have been isolated from human healthy volunteers. Cells were seeded in wells and treated with compounds and rh IL-2. After 30 min incubation cells were lysed and pSTAT5 determined by PathScan phospho-stat5 (Tyr694) ELISA (Cell signaling). Inhibitors were tested at 11 consecutive 5-fold dilutions starting from 30 μM (30 μM-[…]) in duplicate. Calculation of IC50 data, curves and QC analysis were made using Excel tools and GraphPadPrism software. QC criteria parameters: Z′≥0.35, Hill Slope range 0.5 to 5, S:B>2.

Test [3] has as its target T1, JAK 1. The experiment in a line: Biochemical potency on JAK1, TR-FRET LANCE Ultra kinase assay (compounds 1-92). Conditions: ATP at Km, read-out: JAK1 inhibitory activity (pIC50 class) (converted). The method in brief: (§1)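 TR-FRET (LANCE Ultra) phosphorylation of ULight-JAK-1 peptide, ATP at Km: JAK1/JAK2/JAK3/TYK2 peptide 30/50/20/10 nM, ATP 20/0.7/0.2/12 μM, enzyme 0.15/0.083/0.025/0.144 ng/μL. 11-point 5-fold series from 20 μM; 1.5 h RT, EDTA stop, Eu-anti-pTyr detection 1 h; IC50 by variable-slope fit.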
Background: In TR-FRET formats the signal depends on donor and acceptor labels being close together.

The target of a further test is JAK 2 (Homo sapiens (Human), UniProt O60674). The experiment in a line: Biochemical potency on JAK2, TR-FRET LANCE Ultra kinase assay (compounds 1-92). The note with it: ATP at Km, read-out: JAK2 inhibitory activity (pIC50 class) (converted). Put shortly:
as §1

Another test deals with JAK 3 (Homo sapiens (Human), UniProt P52333). Description: Biochemical potency on JAK3, TR-FRET LANCE Ultra kinase assay (compounds 1-92). Conditions: ATP at Km, read-out: JAK3 inhibitory activity (pIC50 class) (converted). Put shortly: as §1
The next test concerns the target TYK2 (Homo sapiens (Human), UniProt P29597). Description: Biochemical potency on Tyk2, TR-FRET LANCE Ultra kinase assay (compounds 1-92). Conditions: ATP at Km, read-out: Tyk2 inhibitory activity (pIC50 class) (converted). The method in brief:
as §1

T1 sequence (P23458 whole entry): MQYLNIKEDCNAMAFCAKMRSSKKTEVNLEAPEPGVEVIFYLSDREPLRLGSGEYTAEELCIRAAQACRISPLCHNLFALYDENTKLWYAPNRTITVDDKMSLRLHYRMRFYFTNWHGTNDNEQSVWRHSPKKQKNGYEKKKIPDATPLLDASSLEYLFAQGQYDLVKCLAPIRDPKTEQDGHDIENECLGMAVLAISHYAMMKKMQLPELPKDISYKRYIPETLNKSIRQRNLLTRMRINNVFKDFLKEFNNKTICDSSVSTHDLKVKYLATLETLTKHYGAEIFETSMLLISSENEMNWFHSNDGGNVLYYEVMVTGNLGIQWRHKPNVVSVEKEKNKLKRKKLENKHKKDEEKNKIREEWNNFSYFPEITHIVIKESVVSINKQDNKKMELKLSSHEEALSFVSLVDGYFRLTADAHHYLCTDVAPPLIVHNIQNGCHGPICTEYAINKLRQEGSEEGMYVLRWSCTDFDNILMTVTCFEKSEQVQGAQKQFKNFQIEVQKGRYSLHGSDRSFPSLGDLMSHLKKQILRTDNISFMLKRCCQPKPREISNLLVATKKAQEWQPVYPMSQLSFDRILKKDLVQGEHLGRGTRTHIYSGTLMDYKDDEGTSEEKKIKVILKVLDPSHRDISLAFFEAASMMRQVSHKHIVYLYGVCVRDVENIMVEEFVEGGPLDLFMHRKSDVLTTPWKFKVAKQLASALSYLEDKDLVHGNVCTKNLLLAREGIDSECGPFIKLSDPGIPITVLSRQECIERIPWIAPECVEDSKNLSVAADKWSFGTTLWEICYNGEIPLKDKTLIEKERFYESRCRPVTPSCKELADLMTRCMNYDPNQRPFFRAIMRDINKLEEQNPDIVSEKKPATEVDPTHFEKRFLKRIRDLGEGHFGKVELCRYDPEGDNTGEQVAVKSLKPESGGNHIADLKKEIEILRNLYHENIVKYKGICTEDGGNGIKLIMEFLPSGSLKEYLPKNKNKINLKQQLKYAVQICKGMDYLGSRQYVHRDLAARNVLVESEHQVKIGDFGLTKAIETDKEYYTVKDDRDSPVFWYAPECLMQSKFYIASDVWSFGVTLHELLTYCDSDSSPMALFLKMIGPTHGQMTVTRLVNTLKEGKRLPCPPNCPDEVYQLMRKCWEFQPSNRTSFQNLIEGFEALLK
TYK2, sequence (P29597 whole entry): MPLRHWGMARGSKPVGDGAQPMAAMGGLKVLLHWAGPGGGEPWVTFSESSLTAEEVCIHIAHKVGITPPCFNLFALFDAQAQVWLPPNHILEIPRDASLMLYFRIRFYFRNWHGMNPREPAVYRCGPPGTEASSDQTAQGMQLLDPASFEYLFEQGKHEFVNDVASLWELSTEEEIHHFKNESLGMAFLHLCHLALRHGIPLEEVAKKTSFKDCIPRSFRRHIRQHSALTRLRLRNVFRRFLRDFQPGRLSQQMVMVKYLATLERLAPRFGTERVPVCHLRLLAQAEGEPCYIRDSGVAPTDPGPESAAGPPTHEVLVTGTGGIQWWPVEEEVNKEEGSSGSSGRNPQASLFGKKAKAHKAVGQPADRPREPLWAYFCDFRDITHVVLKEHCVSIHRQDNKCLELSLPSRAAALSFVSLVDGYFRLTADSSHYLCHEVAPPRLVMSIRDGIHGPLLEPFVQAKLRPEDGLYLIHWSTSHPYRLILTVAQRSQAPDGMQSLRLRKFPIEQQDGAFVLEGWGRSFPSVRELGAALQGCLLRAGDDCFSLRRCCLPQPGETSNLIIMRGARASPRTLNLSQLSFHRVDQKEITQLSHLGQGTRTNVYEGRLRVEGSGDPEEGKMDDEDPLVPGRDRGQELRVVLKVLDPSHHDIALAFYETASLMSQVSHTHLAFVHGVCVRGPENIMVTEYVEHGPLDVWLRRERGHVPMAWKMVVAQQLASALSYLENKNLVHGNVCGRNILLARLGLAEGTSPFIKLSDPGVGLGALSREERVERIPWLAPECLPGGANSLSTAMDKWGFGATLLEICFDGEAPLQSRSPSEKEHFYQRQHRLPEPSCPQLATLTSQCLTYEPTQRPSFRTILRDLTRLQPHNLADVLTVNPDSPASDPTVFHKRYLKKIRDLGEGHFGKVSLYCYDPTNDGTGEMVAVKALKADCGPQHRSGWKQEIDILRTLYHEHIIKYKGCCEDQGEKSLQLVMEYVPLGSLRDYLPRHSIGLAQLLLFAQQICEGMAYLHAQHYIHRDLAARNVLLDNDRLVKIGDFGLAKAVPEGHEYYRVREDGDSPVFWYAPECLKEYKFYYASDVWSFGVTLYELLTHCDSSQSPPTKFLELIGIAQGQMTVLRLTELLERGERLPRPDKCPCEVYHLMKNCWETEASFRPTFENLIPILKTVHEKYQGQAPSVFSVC
JAK 2, sequence (O60674 whole entry): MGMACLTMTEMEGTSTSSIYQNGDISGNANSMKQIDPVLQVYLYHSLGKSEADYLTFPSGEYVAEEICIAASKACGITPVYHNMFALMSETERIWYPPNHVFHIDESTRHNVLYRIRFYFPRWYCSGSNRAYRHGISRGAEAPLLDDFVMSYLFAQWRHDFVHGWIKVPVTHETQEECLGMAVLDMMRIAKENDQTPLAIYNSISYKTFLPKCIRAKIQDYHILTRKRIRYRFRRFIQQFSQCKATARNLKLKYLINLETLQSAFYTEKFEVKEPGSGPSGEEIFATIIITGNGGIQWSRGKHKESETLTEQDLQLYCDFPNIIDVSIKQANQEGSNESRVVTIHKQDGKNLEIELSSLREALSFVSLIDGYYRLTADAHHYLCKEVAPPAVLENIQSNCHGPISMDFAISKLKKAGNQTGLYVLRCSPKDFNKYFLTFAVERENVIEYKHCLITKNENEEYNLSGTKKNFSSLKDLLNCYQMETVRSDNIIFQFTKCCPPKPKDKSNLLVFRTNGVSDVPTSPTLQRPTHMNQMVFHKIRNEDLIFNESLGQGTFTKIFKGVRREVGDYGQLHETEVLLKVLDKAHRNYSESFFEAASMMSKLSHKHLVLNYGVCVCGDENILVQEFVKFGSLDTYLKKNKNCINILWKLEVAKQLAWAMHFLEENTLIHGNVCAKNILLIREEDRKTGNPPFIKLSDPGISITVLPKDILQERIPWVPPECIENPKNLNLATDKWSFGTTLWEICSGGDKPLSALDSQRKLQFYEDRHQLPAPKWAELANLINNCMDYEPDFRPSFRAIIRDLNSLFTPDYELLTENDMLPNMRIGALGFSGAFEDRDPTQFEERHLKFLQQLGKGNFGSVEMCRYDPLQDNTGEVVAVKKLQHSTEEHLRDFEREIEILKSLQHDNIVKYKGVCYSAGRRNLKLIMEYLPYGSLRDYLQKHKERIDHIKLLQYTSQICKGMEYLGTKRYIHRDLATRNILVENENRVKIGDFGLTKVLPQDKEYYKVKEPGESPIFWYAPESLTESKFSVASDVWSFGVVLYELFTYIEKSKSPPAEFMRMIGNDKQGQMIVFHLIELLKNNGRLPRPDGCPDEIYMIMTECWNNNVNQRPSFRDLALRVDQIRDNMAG
JAK 3, sequence (P52333 whole entry): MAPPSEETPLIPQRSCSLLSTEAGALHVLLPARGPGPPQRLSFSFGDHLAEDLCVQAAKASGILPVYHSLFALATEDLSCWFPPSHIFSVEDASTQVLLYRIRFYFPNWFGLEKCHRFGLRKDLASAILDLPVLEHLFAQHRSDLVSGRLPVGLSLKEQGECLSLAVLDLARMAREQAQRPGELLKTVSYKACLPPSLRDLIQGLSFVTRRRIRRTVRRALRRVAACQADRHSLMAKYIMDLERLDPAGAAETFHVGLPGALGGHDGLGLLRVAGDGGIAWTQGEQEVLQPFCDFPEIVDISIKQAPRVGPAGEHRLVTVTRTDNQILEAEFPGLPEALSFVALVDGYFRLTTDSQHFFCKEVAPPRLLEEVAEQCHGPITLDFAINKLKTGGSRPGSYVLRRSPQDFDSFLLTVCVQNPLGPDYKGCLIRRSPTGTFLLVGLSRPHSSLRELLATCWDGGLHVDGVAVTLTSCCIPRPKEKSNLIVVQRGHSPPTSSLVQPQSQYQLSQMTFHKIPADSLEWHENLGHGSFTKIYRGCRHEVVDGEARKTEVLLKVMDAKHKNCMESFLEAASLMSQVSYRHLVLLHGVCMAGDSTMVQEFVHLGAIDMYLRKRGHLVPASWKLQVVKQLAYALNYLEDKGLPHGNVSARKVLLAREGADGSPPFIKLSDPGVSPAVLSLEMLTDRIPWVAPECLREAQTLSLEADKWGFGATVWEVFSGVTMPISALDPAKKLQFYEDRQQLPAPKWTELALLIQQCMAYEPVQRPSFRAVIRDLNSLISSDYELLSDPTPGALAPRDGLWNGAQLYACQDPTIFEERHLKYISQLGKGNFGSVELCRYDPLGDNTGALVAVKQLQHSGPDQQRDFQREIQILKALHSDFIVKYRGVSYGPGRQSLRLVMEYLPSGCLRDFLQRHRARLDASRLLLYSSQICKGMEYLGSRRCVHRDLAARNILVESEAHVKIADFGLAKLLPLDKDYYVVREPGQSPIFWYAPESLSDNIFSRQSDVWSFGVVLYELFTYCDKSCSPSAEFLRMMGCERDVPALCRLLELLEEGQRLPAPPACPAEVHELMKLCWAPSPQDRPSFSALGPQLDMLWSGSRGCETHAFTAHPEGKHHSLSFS

On to `OCc1nn(-c2cc(Cl)ccc2OC(F)F)c2cc(-c3cnn4cccnc34)cnc12` [Example 1a, (1-(5-chloro-2-(difluoromethoxy)phenyl)-6-(pyrazolo[1,5-a]pyrimidin-3-yl)-1H-pyrazolo[4,3-b]pyridin-3-yl)methanol], for which the “Biochemical Potency JAK 1 (pIC50)” value at JAK 1 [1] worked out at 8.1. In addition, the IC50 in test [2] was 50.1 nM.
In the same order, the values of `CN(C)C(=O)Cn1nc(-c2cc(Cl)ccc2OC(F)F)c2cc(-c3cnn4cccnc34)cnc21` [Example 2a, 2-(3-(5-chloro-2-(difluoromethoxy)phenyl)-5-(pyrazolo[1,5-a]pyrimidin-3-yl)-1H-pyrazolo[3,4-b]pyridin-1-yl)-N,N-dimethylacetamide] are 7.3 and 631 nM.
For `COC(=O)c1nn(-c2cc(Cl)ccc2OC(F)F)c2cc(-c3cnn4cccnc34)cnc12` [Example 3a, methyl 1-(5-chloro-2-(difluoromethoxy)phenyl)-6-(pyrazolo[1,5-a]pyrimidin-3-yl)-1H-pyrazolo[4,3-b]pyridine-3-carboxylate], the “Biochemical Potency JAK 1 (pIC50)” value on JAK 1 [1] amounted to 8.1.
As for `CN(C)C(=O)Cc1nn(-c2cc(Cl)ccc2OC(F)F)c2cc(-c3cnn4cccnc34)cnc12` [Example 4a, 2-(1-(5-chloro-2-(difluoromethoxy)phenyl)-6-(pyrazolo[1,5-a]pyrimidin-3-yl)-1H-pyrazolo[4,3-b]pyridin-3-yl)-N,N-dimethylacetamide], at JAK 1 [1], the “Biochemical Potency JAK 1 (pIC50)” value is 7.8. In addition, in test [2], the IC50 is 316 nM.
With `O=C(O)Cc1nn(-c2cc(Cl)ccc2OC(F)F)c2cc(-c3cnn4cccnc34)cnc12` [Example 5a, 2-(1-(5-chloro-2-(difluoromethoxy)phenyl)-6-(pyrazolo[1,5-a]pyrimidin-3-yl)-1H-pyrazolo[4,3-b]pyridin-3-yl)acetic acid], on JAK 1 [1], the “Biochemical Potency JAK 1 (pIC50)” value amounted to 7.7. Also, the IC50 in test [2] is 6310 nM.
As for `Cc1nn(-c2cc(Cl)ccc2OC(F)F)c2cc(-c3cnc4cccnn34)ncc12` [Example 6a, 1-(5-chloro-2-(difluoromethoxy)phenyl)-6-(imidazo[1,2-b]pyridazin-3-yl)-3-methyl-1H-pyrazolo[4,3-c]pyridine], the “Biochemical Potency JAK 1 (pIC50)” value on JAK 1 [1] stood at 8.4.
For `Cc1nn(-c2cc(Cl)ccc2OC(F)F)c2cc(-c3cnn4cccnc34)ncc12` [Example 7a, 1-(5-chloro-2-(difluoromethoxy)phenyl)-3-methyl-6-(pyrazolo[1,5-a]pyrimidin-3-yl)-1H-pyrazolo[4,3-c]pyridine], the “Biochemical Potency JAK 1 (pIC50)” value at JAK 1 [1] is listed as 8.5. The IC50 in test [2] was 39.8 nM.
On to `Cc1nn(Cc2ccc(Cl)cc2F)c2cc(-c3cnc4cccnn34)cnc12` [Example 8a, 1-(4-chloro-2-fluorobenzyl)-6-(imidazo[1,2-b]pyridazin-3-yl)-3-methyl-1H-pyrazolo[4,3-b]pyridine], for which the “Biochemical Potency JAK 1 (pIC50)” value on JAK 1 [1] turned out to be 6.7. Also, the IC50 in test [2] is 794 nM.
In the same order, the values of `Cc1nn(-c2cc(Cl)ccc2OC(F)F)c2cc(-c3cnn4cccnc34)cnc12` [Example 9a, 1-(5-chloro-2-(difluoromethoxy)phenyl)-3-methyl-6-(pyrazolo[1,5-a]pyrimidin-3-yl)-1H-pyrazolo[4,3-b]pyridine] are 7.8 and 50.1 nM.
In the same order, the values of `Cc1nn(C2CCCN(C(=O)CC#N)C2)c2cc(-c3cnn4cccnc34)cnc12` (centres unmarked) [Example 10a, 3-(3-(3-methyl-6-(pyrazolo[1,5-a]pyrimidin-3-yl)-1H-pyrazolo[4,3-b]pyridin-1-yl)piperidin-1-yl)-3-oxopropanenitrile] are 6.0 and 6310 nM.
Regarding `CCCS(=O)(=O)Nc1ccc(-n2nc(NCCN3CCCCC3)c3cnc(Nc4ncc[nH]c4=O)cc32)c(OC)c1` [Example 88, N-(3-methoxy-4-(6-((3-oxo-3,4-dihydropyrazin-2-yl)amino)-3-((2-(piperidin-1-yl)ethyl)amino)-1H-pyrazolo[4,3-c]pyridin-1-yl)phenyl)propane-1-sulfonamide], the IC50 was not above 5.01 nM at JAK 1 [3], not above 5.01 nM on JAK 2, not above 5.01 nM on JAK 3 and 5.01 to 50.1 nM at TYK2.
Regarding `CCCS(=O)(=O)Nc1ccc(-n2nc(NCCN3CCOCC3)c3cnc(Nc4ncc[nH]c4=O)cc32)c(OC(F)F)c1` [Example 89, N-(3-(difluoromethoxy)-4-(3-((2-morpholinoethyl)amino)-6-((3-oxo-3,4-dihydropyrazin-2-yl)amino)-1H-pyrazolo[4,3-c]pyridin-1-yl)phenyl)propane-1-sulfonamide], the IC50 was not above 5.01 nM on JAK 1 [3], not above 5.01 nM at JAK 2, not above 5.01 nM on JAK 3 and 5.01 to 50.1 nM at TYK2.
For the compound `COc1cc(NS(C)(=O)=O)ccc1-n1nc(NCCN2C3CCC2COC3)c2cnc(Nc3ncc[nH]c3=O)cc21` [Example 90, N-(4-(3-((2-(3-oxa-8-azabicyclo[3.2.1]octan-8-yl)ethyl)amino)-6-((3-oxo-3,4-dihydropyrazin-2-yl)amino)-1H-pyrazolo[4,3-c]pyridin-1-yl)-3-methoxyphenyl)methanesulfonamide], the IC50 at JAK 1 [3], at JAK 2, at JAK 3 and on TYK2 was not above 5.01 nM each time.
On to `CCCS(=O)(=O)Nc1ccc(-n2nc(NC)c3cnc(Nc4ncc[nH]c4=O)cc32)c(OC)c1` [Example 91, N-(3-methoxy-4-(3-(methylamino)-6-((3-oxo-3,4-dihydropyrazin-2-yl)amino)-1H-pyrazolo[4,3-c]pyridin-1-yl)phenyl)propane-1-sulfonamide], for which the IC50 at JAK 1 [3] was not above 5.01 nM; at JAK 2 it was not above 5.01 nM; at JAK 3, not above 5.01 nM; at TYK2, 5.01 to 50.1 nM.
For `COc1cc(CNS(C)(=O)=O)ccc1-n1nc(NCCN2CCOCC2)c2cnc(Nc3ncc[nH]c3=O)cc21` [Example 92, N-(3-methoxy-4-(3-((2-morpholinoethyl)amino)-6-((3-oxo-3,4-dihydropyrazin-2-yl)amino)-1H-pyrazolo[4,3-c]pyridin-1-yl)benzyl)methanesulfonamide], the IC50 on JAK 1 [3], at JAK 2, at JAK 3 and on TYK2 was not above 5.01 nM each time.
